Measurements as given in ChEMBL document CHEMBL5505980, “Pyrazolamide derivatives inhibit α-Synuclein aggregation, disaggregate preformed fibers, and reduce inclusion formation in neuron cells” (Eur J Med Chem, 2024).

Tests used:
[1] = Cytotoxicity against human H4 cells assessed as cell viability at 30 uM incubated for 24 hrs by CCK-8 assay relative to control; format: toxicity, cell-based; conditions: read-out: Activity
H4 [2] = experiment: Cytotoxicity against human H4 cells assessed as cell viability at 1 to 1000 uM incubated for 24 hrs by CCK-8 assay; format: toxicity, cell-based; conditions: h4, 24 h, dose 1-1000 µM
[3] = Apparent permeability across apical to basolateral side in MDCKII-MDR1 cells at 10 uM by LC-MS/MS analysis; format: ADME, cell-based, Canis lupus familiaris; conditions: dog, MDCK-MDR1
[4] = Apparent permeability across basolateral side to apical in MDCKII-MDR1 cells at 10 uM by LC-MS/MS analysis; format: ADME, cell-based, Canis lupus familiaris; conditions: dog, MDCK-MDR1
H4 [5] = experiment: Cytotoxicity against human H4 cells assessed as cell viability at 300 uM incubated for 24 hrs by CCK-8 assay relative to control; format: toxicity, cell-based; conditions: h4, 24 h
Alpha-synuclein = Alpha-synuclein (Homo sapiens, UniProt P37840); experiment: Inhibition of alpha-synuclein (unknown origin) aggregation inhibition ratio by measuring relative fluorescence intensity measured after 3 days by ThT F1 based assay relative to control

Compound | Papp A→B at 10 µM [3] | Papp B→A at 10 µM [4] | viability at 24 h, 30 µM [1] | Activity (H4 [2]) | Activity (H4 [5]) | IC50 (Alpha-synuclein)
Cc1ccc(-c2cc(C(=O)Nc3cc(O)ccc3O)[nH]n2)cc1 | 2.26 ×10⁻⁶ cm/s | 6.65 ×10⁻⁶ cm/s | 74% | Non-Toxic | – | –
O=C(Nc1cc(O)ccc1O)c1cc(-c2ccc(C(F)(F)F)cc2)n[nH]1 | 49.7 ×10⁻⁶ cm/s | 19.3 ×10⁻⁶ cm/s | 95% | Non-Toxic | – | –
O=C(O[C@@H]1Cc2c(O)cc(O)cc2O[C@@H]1c1cc(O)c(O)c(O)c1)c1cc(O)c(O)c(O)c1 [EPIGALOCATECHIN GALLATE] | – | – | – | Non-Toxic | – | 2580 nM

The next lines start with results.

Papp A→B at 10 µM [3] | Papp B→A at 10 µM [4] | Compound | viability at 24 h, 30 µM [1] | Activity (H4 [2]) | Activity (H4 [5]) | IC50 (Alpha-synuclein)
4.2 ×10⁻⁶ cm/s | 1.86 ×10⁻⁶ cm/s | O=C(Nc1ccc(O)c(O)c1)c1cc(-c2ccc(C(F)(F)F)cc2)n[nH]1 | 95% | Non-Toxic | – | –
29.6 ×10⁻⁶ cm/s | 12 ×10⁻⁶ cm/s | O=C(Nc1cc(O)ccc1O)c1cc(-c2ccc(Br)cc2)n[nH]1 | 95% | Non-Toxic | Non-Toxic | –
